Measured values from PubChem BioAssay AID1963868 (Molecular Pharmacology Branch, DTP, NCI, 2024).

Test system: KRAS PDC tumor spheroids (HUVEC+MSC), viability
Test: Anticancer human tumor 254851-301-R-J1-PDC patient-derived colon carcinoma cell line growth inhibition [KRAS2]
Conditions: for IC50: curve of first compound; for viability, T/C: stronger effect = lower value
Excerpt: Multicellular complex tumor spheroid response to RAS pathway inhibitors in combination with a targeted agents in patient-derived cell lines with oncogenic KRAS variants from multiple cancer types
A high-throughput screen of multi-cell type tumor spheroids was designed to identify active combinations of targeted small molecules and KRAS pathway inhibitors. Complex spheroids include a stromal component modeled by human endothelial cells (HUVEC) and fibroblasts modeled by human mesenchymal stem cells (MSCs). The concentration ranges selected for each drug and investigational agent were based upon clinically achievable concentrations if the clinical Cmax of the agent was known.
Compounds. The drugs and investigational agents: BI-3406 (NSC825286), BAY-293 (NSC824723), batoprotafib (TNO155; NSC825523), sotorasib (AMG 510; NSC818433), MRTX1257 (NSC819558), elimusertib (BAY 1895344; NSC800525), molibresib (GSK525762; NSC774829), temuterkib (LY3214996; NSC803410), venetoclax (NSC766270), alisertib (NSC759677), olaparib (NSC753686), talazoparib (NSC767125), erdafitinib (NSC781556), ipatasertib (NSC767898), cabozantinib (NSC761068), nintedanib (NSC756659), abemaciclib (NSC768073), docetaxel (NSC628503), trametinib (NSC758246), and sapanisertib (NSC764658) were obtained from the National Cancer Institute (NCI) Developmental Therapeutics Program Chemical Repository. The FDA-approved anticancer drug set is available from the Developmental Therapeutics Program. […] The stock solutions were prepared in dimethyl sulfoxide (DMSO, Sigma-Aldrich, St. Louis, MO, cat. D2650) at 800-fold the tested concentration and stored at -70 degrees C prior to their use. All drugs and investigational agents were tested over a range starting from a high concentration at or near the clinical Cmax and decreasing in half-log increments. If the clinical Cmax for an agent had not been determined, the highest concentration tested was 10 microM.
Cell Culture. All cells were maintained in an incubator at 37 degrees C and 5% CO2 with 95% humidity. The PDC lines were cultured according to standard operating procedures established by the NCI PDMR (https://pdmr.cancer.gov/sops/default.htm). Briefly, all PDCs were thawed and cultured in Matrigel-coated flasks prepared with a working solution of 1X Ham's F-12 nutrient mix, without supplementation (Invitrogen, Waltham, MA, cat. 11765054), 100 U/mL penicillin-streptomycin (Invitrogen, cat. 15140122), and 2.5% Matrigel (Corning Inc., Corning, NY, cat. 354248) for the first three passages. All PDCs were cultured in complete DMEM/F-12 media containing advanced DMEM/F-12 (Invitrogen, cat. 12634028), 4.9% defined fetal bovine serum, heat inactivated (HyClone Laboratories Inc., Logan, UT, cat. SH30070.03HI), 389 ng/mL hydrocortisone (Sigma-Aldrich, cat. H4001), 9.7 ng/mL human EGF recombinant protein (Invitrogen, cat. PHG0313), 23.4 microg/mL adenine (Sigma-Aldrich, cat. A2786), 97.3 U/mL penicillin-streptomycin (Invitrogen, cat. 15140122), 1.9 mM L-glutamine (Invitrogen, cat. 25030081), and 9.7 microM Y-27632 dihydrochloride (Tocris Bioscience, Bristol, United Kingdom, cat. 1254). The PDCs were cultured in complete DMEM/F12 media without 9.7 microM Y-27632 dihydrochloride for at least two passages prior to the screen. The established cell line HOP-62 was cultured in RPMI 1640 medium, HEPES (Invitrogen, cat. 22400105) with 10% defined fetal bovine serum (HyClone Laboratories Inc., cat. SH30070.03) and 2 mM L-glutamine (Invitrogen, cat. 25030081). The pooled donor HUVEC were cultured in endothelial cell growth medium 2 (PromoCell, Heidelberg, Germany, cat. C-22011) and the hMSC were cultured in mesenchymal stem cell growth medium 2 (PromoCell, cat. C-28009). For all experiments, HUVEC and hMSC were used at passages </=5, while the malignant cell lines were used at passages </=15. […]

[1] = second compound 0.1 µM, first compound 0.0316 µM
[2] = second compound 0.1 µM, first compound 0.1 µM
[3] = second compound 0.1 µM, first compound 0.316 µM
[4] = second compound 0.1 µM, first compound 1 µM
[5] = second compound 0.1 µM, first compound 3.16 µM
[6] = second compound 0.1 µM, first compound 10 µM
[7] = second compound 0.316 µM, first compound 0.0316 µM
[8] = second compound 0.316 µM, first compound 0.1 µM
[9] = second compound 0.316 µM, first compound 0.316 µM
[10] = second compound 0.316 µM, first compound 1 µM
[11] = second compound 0.316 µM, first compound 3.16 µM
[12] = second compound 0.316 µM, first compound 10 µM
[13] = second compound 1 µM, first compound 0.0316 µM
[14] = second compound 1 µM, first compound 0.1 µM
[15] = second compound 1 µM, first compound 0.316 µM
[16] = second compound 1 µM, first compound 1 µM
[17] = second compound 1 µM, first compound 3.16 µM
[18] = second compound 1 µM, first compound 10 µM
[19] = second compound 3.16 µM, first compound 0.0316 µM
[20] = second compound 3.16 µM, first compound 0.1 µM
[21] = second compound 3.16 µM, first compound 0.316 µM
[22] = second compound 3.16 µM, first compound 1 µM
[23] = second compound 3.16 µM, first compound 3.16 µM
[24] = second compound 3.16 µM, first compound 10 µM
[25] = second compound 10 µM, first compound 0.0316 µM
[26] = second compound 10 µM, first compound 0.1 µM
[27] = second compound 10 µM, first compound 0.316 µM
[28] = second compound 10 µM, first compound 1 µM
[29] = second compound 10 µM, first compound 3.16 µM
[30] = second compound 10 µM, first compound 10 µM
[31] = second compound 0.1 µM, first compound 0.01 µM
[32] = second compound 0.316 µM, first compound 0.01 µM
[33] = second compound 1 µM, first compound 0.01 µM
[34] = second compound 3.16 µM, first compound 0.01 µM
[35] = second compound 10 µM, first compound 0.01 µM
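Further: spheroids exposed to compounds for seven days before readout.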
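Wherever viability, T/C is given: 100% = DMSO vehicle control luminescence of the spheroids.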

Row | Compound | IC50 (second compound 0.1 µM) | IC50 (second compound 0.316 µM) | IC50 (second compound 1 µM) | IC50 (second compound 3.16 µM) | IC50 (second compound 10 µM) | viability, T/C [1] | viability, T/C [2] | viability, T/C [3] | viability, T/C [4] | viability, T/C [7] | viability, T/C [8] | viability, T/C [9] | viability, T/C [10] | viability, T/C [13] | viability, T/C [14] | viability, T/C [15] | viability, T/C [16] | viability, T/C [19] | viability, T/C [20] | viability, T/C [21] | also measured
1 | CC1(C)CCC(CN2CCN(c3ccc(C(=O)NS(=O)(=O)c4ccc(NCC5CCOCC5)c([N+](=O)[O-])c4)c(Oc4cnc5[nH]ccc5c4)c3)CC2)=C(c2ccc(Cl)cc2)C1 + CNCc1ccccc1-c1csc(C(C)Nc2nc(C)nc3cc(OC)c(OC)cc23)c1 | > 10000 nM | > 10000 nM | 3120 nM | 1110 nM | < 31.6 nM | 100% | 104% | 100% | 94.8% | 91.9% | 102% | 99.7% | 100% | 93.3% | 102% | 92.9% | 83.2% | 80.4% | 75.1% | 71.6% | viability, T/C [5]: 94%; viability, T/C [6]: 86%; viability, T/C [11]: 87.7%; viability, T/C [12]: 81.2%; viability, T/C [17]: 49.6%; viability, T/C [18]: 16.4%; viability, T/C [22]: 55%; viability, T/C [23]: 1.17%; viability, T/C [24]: 0.61%; viability, T/C [25]: 0.17%; viability, T/C [26]: 0.2%; viability, T/C [27]: 0.17%; viability, T/C [28]: 0.15%; viability, T/C [29]: 0.12%; viability, T/C [30]: 0.17%
2 | COC(=O)c1ccc2c(C(=Nc3ccc(N(C)C(=O)CN4CCN(C)CC4)cc3)c3ccccc3)c(O)[nH]c2c1 + CNCc1ccccc1-c1csc(C(C)Nc2nc(C)nc3cc(OC)c(OC)cc23)c1 | > 10000 nM | > 10000 nM | > 10000 nM | 378 nM | < 31.6 nM | 101% | 94.3% | 96.3% | 91% | 93.1% | 93.6% | 91.9% | 87% | 91.8% | 96.5% | 84.8% | 79.9% | 63.6% | 70.2% | 58.8% | viability, T/C [5]: 83.9%; viability, T/C [6]: 95.9%; viability, T/C [11]: 77.4%; viability, T/C [12]: 86.2%; viability, T/C [17]: 69.2%; viability, T/C [18]: 59%; viability, T/C [22]: 2.44%; viability, T/C [23]: 0.21%; viability, T/C [24]: 0.68%; viability, T/C [25]: 0.16%; viability, T/C [26]: 0.16%; viability, T/C [27]: 0.25%; viability, T/C [28]: 0.11%; viability, T/C [29]: 0.1%; viability, T/C [30]: 0.16%
3 | CCN1CCN(Cc2ccc(Nc3ncc(F)c(-c4cc(F)c5nc(C)n(C(C)C)c5c4)n3)nc2)CC1 + COc1cc2nc(C)nc(NC(C)c3cc(N)cc(C(F)(F)F)c3)c2cc1OC1CCOC1 | 573 nM | 578 nM | 549 nM | 120 nM | 66.6 nM | 96% | 80.6% | 66.2% | 35.7% | 92.2% | 72.2% | 67.9% | 36.2% | 86.7% | 76.8% | 63.1% | 36.3% | 55.3% | 49.9% | 43.3% | viability, T/C (second compound 0.1 µM, first compound 0.00316 µM): 97.6%; viability, T/C [31]: 98.1%; viability, T/C (second compound 0.316 µM, first compound 0.00316 µM): 93.2%; viability, T/C [32]: 92.6%; viability, T/C (second compound 1 µM, first compound 0.00316 µM): 90.3%; viability, T/C [33]: 88.9%; viability, T/C (second compound 3.16 µM, first compound 0.00316 µM): 63.5%; viability, T/C [34]: 70%; viability, T/C [22]: 26%; viability, T/C (second compound 10 µM, first compound 0.00316 µM): 83.2%; viability, T/C [35]: 74.5%; viability, T/C [25]: 69.7%; viability, T/C [26]: 39.1%; viability, T/C [27]: 17.8%; viability, T/C [28]: 7.16%
4 | CC1COCCN1c1cc(-c2ccnn2C)c2ccnc(-c3ccn[nH]3)c2n1 (stereo not given) + CC1OCC2(CCN(c3cnc(Sc4ccnc(N)c4Cl)c(N)n3)CC2)C1N | 303 nM | 323 nM | 315 nM | 165 nM | 152 nM | 107% | 75.5% | 48.6% | 36.4% | 101% | 83.5% | 49.8% | 33% | 89.8% | 79% | 47.1% | 34.6% | 74.8% | 57% | 39.2% | viability, T/C [31]: 114%; viability, T/C [5]: 24.5%; viability, T/C [32]: 90.5%; viability, T/C [11]: 24.4%; viability, T/C [33]: 88.7%; viability, T/C [17]: 21.2%; viability, T/C [34]: 69.2%; viability, T/C [22]: 23.1%; viability, T/C [23]: 21.9%; viability, T/C [35]: 67.1%; viability, T/C [25]: 65.8%; viability, T/C [26]: 58.3%; viability, T/C [27]: 35.8%; viability, T/C [28]: 27.2%; viability, T/C [29]: 20%
